# Measurements from patent publication US9227971B2, “Pyrazolo[1,5-a]pyrimidine compounds as mTOR inhibitors” (Merck Sharp & Dohme Corp., priority 2010, dated 2016).
# pIC50: −log10 of the molar value. Like-named read-outs stand apart in the source and are kept apart here.
# Key:
# [1] = test system: phosphorylated AKT Ser473 (pAKT S473), mTORC2 activity, PC3 cells; assay: mTOR target engagement assay, immunofluorescent cell-based, pAKT S473 readout (mTORC2 activity); conditions: Homo sapiens
# Method: (§1) The target engagement of mTOR kinase inhibitors was evaluated using an immunofluorescent cell-based assay. In this assay, inhibition of mTORC1 activity was measured by the reduction in the level of phosphorylated 4E-BP1^[…] (p4E-BP1 Thr37/46), and inhibition of mTORC2 activity was measured by the reduction of phosphorylated AKT^Ser473 (pAKT S473).
# PC3 cells (prostate tumor cell-line that contains a mutation in the tumor suppressor PTEN, that promotes the phosphorylation and activation of AKT and 4E-BP1) were used in the immunofluorescence assay. […] PC3 cells were then treated with 40 μl of the serially diluted test compounds (in 5% fetal bovine serum, F12 medium containing 0.25% DMSO) for ninety minutes at 37° C. The test compound solution was removed, and the plates were washed gently two times with 25 μl phosphate buffered saline (PBS). […] 5% Goat serum in PBS/0.3% Triton was used to block non-specific binding (60 minutes).
# The primary antibodies targeting pAKT S473 and p4E-BP1 Thr37/46 were diluted into PBS/0.3% Triton and incubated with the cells overnight at 4° C. […] Plates were washed three times with PBS/0.1% Tween 20 before adding the secondary antibody at a 1:200 dilution.
# Finally, the plates were washed three times with PBS/0.1% Tween 20 and the fluorescent intensity was read using an Analyst HT from Molecular Devices.
# [2] = test system: phosphorylated 4E-BP1 Thr37/46 (p4E-BP1 Thr37/46), mTORC1 activity, PC3 cells; assay: mTOR target engagement assay, immunofluorescent cell-based, p4E-BP1 Thr37/46 readout (mTORC1 activity); conditions: Homo sapiens, read-out: p4E-BP1 Thr37/46 IC50
# Method: as §1
# PC3 cells (prostate tumor cell-line that contains a mutation in the tumor suppressor PTEN, that promotes the phosphorylation and activation of AKT and 4E-BP1) were used in the immunofluorescence assay. PC3 cells were seeded on 384 well plates (black clear bottom, Matrix #4332) overnight. PC3 cells were then treated with 40 μl of the serially diluted test compounds (in 5% fetal bovine serum, F12 medium containing 0.25% DMSO) for ninety minutes at 37° C. The test compound solution was removed, and the plates were washed gently two times with 25 μl phosphate buffered saline (PBS). The cells were fixed by adding 25 μl of Prefer reagent (from Anatech LTD, Cat#414, a glyoxal fixative for fixing proteins within a cell) for sixty minutes followed by three washes with PBS. 5% Goat serum in PBS/0.3% Triton was used to block non-specific binding (60 minutes).
# The primary antibodies targeting pAKT S473 and p4E-BP1 Thr37/46 were diluted into PBS/0.3% Triton and incubated with the cells overnight at 4° C. The antibodies targeting pAKTS473 (Cat#4085, Cell signaling) and p4E-BP1 Thr37/46 (Cat#2855, Cell signaling) were used at a 1:100 dilution. Plates were washed three times with PBS/0.1% Tween 20 before adding the secondary antibody at a 1:200 dilution. (goat anti-rabbit containing a fluorescent label, Alexa Fluor 488, Cat#A11008, Invitrogen) in PBS/0.3% Triton for 60 minutes.
# Finally, the plates were washed three times with PBS/0.1% Tween 20 and the fluorescent intensity was read using an Analyst HT from Molecular Devices. The fluorescent intensity values from the serially diluted compound treatment group were analyzed using the Xlfit 4 program ([…]) (Formula 205: Y=Bottom+(Top-Bottom)/(1+(IC50/X)^Hillslope) to generate the IC50 value. Where Top is the maximum signal without Compound (+DMSO only) and Bottom represents maximum inhibition. Y is the fluorescence at some compound concentration. The control used to determine the fluorescent intensities for 100% pAKT S473 or 100% phosphorylated p4E-BP1 Thr37/46 were measured from untreated wells that contained only DMSO, instead of test compound.
# [3] = PC-3, PC3 cells, compound treatment ninety minutes at 37° C.
structure (smiles),measurement,setting,value
"Cc1nc(-c2ccc(-c3cnn4c(N)c(C5CC5)c([C@@H]5C[C@H]6CC[C@@H](C5)N6C(=O)CO)nc34)cn2)[nH]c1C [Compound 6.32, 1-((1R,3s,5S)-3-(7-amino-6-cyclopropyl-3-(6-(4,5-dimethyl-1H-imidazol-2-yl)pyridin-3-yl)pyrazolo[1,5-a]pyrimidin-5-yl)-8-azabicyclo[3.2.1]octan-8-yl)-2-hydroxyethanone]",pIC50,"[1]; PC-3, Table 6-1, PC3 cells",7.00 to 9.00
same,pIC50,"[2]; PC-3, Table 6-1, PC3 cells",6.00 to 7.00
CS(=O)(=O)c1c([C@@H]2C[C@H]3CC[C@@H](C2)N3C(=O)c2nnc[nH]2)nc2c(-c3cnc4ccc(F)cc4c3)cnn2c1N [Compound 3.25],pIC50,"[1]; PC-3, Table 3-1, PC3 cells",7.00 to 9.00
same,pIC50,"[2]; PC-3, Table 3-1, PC3 cells",7.00 to 9.00
"Cc1n[nH]cc1C(=O)N1[C@@H]2CC[C@H]1C[C@H](c1nc3c(-c4ccc(-c5ccccc5)nc4)cnn3c(N)c1S(C)(=O)=O)C2 [Compound 3.80, ((1R,3s,5S)-3-(7-amino-6-(methylsulfonyl)-3-(6-phenylpyridin-3-yl)pyrazolo[1,5-a]pyrimidin-5-yl)-8-azabicyclo[3.2.1]octan-8-yl)(3-methyl-1H-pyrazol-4-yl)methanone]",pIC50,"[1]; PC-3, Table 3-1, PC3 cells",7.00 to 9.00
same,pIC50,"[2]; PC-3, Table 3-1, PC3 cells",7.00 to 9.00
"COc1cc(-c2ccc(-c3cnn4c(N)c(C5CC5)c([C@@H]5C[C@H]6CC[C@@H](C5)N6C(=O)c5nnc[nH]5)nc34)cn2)ccc1F [Compound 4.11, ((1R,3a,5S)-3-(7-amino-6-cyclopropyl-3-(6-(4-fluoro-3-methoxyphenyl)pyridin-3-yl)pyrazolo[1,5-a]pyrimidin-5-yl)-8-azabicyclo[3.2.1]octan-8-yl)(4H-1,2,4-triazol-3-yl)methanone]",pIC50,[2]; [3],< 5.00
"CC(=O)c1c([C@@H]2C[C@H]3CC[C@@H](C2)N3C(=O)c2cc(N)n[nH]2)nc2c(-c3ccc(-c4ncc[nH]4)nc3)cnn2c1N [Compound 6.17, 1-(3-(6-(1H-imidazol-2-yl)pyridin-3-yl)-7-amino-5-((1R,3s,5S)-8-(3-amino-1H-pyrazole-5-carbonyl)-8-azabicyclo[3.2.1]octan-3-yl)pyrazolo[1,5-a]pyrimidin-6-yl)ethanone]",pIC50,"[1]; PC-3, Table 6-1, PC3 cells",7.00 to 9.00
"CC(=O)c1c([C@@H]2C[C@H]3CC[C@@H](C2)N3C(=O)[C@@H](C)O)nc2c(-c3ccc(-c4ccc(F)cc4)nc3)cnn2c1N [Compound 1.1.158, (R)-1-((1R,3S,5S)-3-(6-acetyl-7-amino-3-(6-(4-fluorophenyl)pyridin-3-yl)pyrazolo[1,5-a]pyrimidin-5-yl)-8-azabicyclo[3.2.1]octan-8-yl)-2-hydroxypropan-1-one]",pIC50,[1]; [3],6.00 to 7.00
"CC(=O)c1c([C@@H]2C[C@H]3CC[C@@H](C2)N3C(=O)C(C)(C)O)nc2c(-c3ccc(-c4nccs4)nc3)cnn2c1N [Compound 1.1.35, 1-((1R,3s,5S)-3-(6-acetyl-7-amino-3-(6-(thiazol-2-yl)pyridin-3-yl)pyrazolo[1,5-a]pyrimidin-5-yl)-8-azabicyclo[3.2.1]octan-8-yl)-2-hydroxy-2-methylpropan-1-one]",pIC50,[1]; [3],6.00 to 7.00
"CC(=O)c1c(N2CC3CCC2CN3C(=O)[C@@H](C)O)nc2c(-c3ccc(-c4ccccc4)nc3)cnn2c1N (stereo partly drawn) [Compound 8.4, (2R)-1-(5-(6-acetyl-7-amino-3-(6-phenylpyridin-3-yl)pyrazolo[1,5-a]pyrimidin-5-yl)-2,5-diazabicyclo[2.2.2]octan-2-yl)-2-hydroxypropan-1-one]",pIC50,"[1]; PC-3, PC3 cells",5.00 to 6.00
"Nc1cc([C@@H]2C[C@H]3CC[C@@H](C2)N3C(=O)c2nnc[nH]2)nc2c(-c3ccc(C4(O)CCC4)nc3)cnn12 [Compound 7.44, ((1R,3s,5S)-3-(7-amino-3-(6-(1-hydroxycyclobutyl)pyridin-3-yl)pyrazolo[1,5-a]pyrimidin-5-yl)-8-azabicyclo[3.2.1]octan-8-yl)(4H-1,2,4-triazol-3-yl)methanone]",pIC50,"[2]; PC-3, Table 7-8, PC3 cells",5.00 to 6.00
